Where “and” joins values, the source holds several entries; their conditions need not be identical. Equal entries are not always repeated. Calls of active or inactive are those of the source. The rule behind the calls is not given here.
Target: Perilipin-5 (Homo sapiens) + 1-acylglycerol-3-phosphate O-acyltransferase ABHD5 (Homo sapiens) (UniProt Q00G26+Q8WTS1)
Experiment: blockers of ABHD5 binding to perilipin-5 – cell lysate, luminescence, proteins expressed in HEK293T, dose response (AID 651733);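 note: split Gaussia princeps luciferase complementation between ABHD5 and MLDP fusion proteins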
Settings: ABHD5-PLIN5 interaction

Perilipin-5 (Homo sapiens) + 1-acylglycerol-3-phosphate O-acyltransferase ABHD5 (Homo sapiens), sequence (Q00G26 whole entry, looked up, the tested form may be a part): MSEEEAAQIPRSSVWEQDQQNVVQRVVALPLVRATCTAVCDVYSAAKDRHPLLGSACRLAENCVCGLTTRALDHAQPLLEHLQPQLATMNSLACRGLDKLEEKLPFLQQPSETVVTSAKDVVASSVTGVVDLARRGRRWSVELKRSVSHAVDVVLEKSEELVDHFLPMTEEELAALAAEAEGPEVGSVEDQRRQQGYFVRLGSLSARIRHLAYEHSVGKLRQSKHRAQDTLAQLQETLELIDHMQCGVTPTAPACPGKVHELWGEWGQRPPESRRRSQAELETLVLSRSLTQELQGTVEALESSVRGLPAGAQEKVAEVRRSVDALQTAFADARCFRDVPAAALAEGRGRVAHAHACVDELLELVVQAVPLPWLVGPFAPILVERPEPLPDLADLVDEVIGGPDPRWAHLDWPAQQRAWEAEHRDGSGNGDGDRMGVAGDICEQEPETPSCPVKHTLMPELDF
Perilipin-5 (Homo sapiens) + 1-acylglycerol-3-phosphate O-acyltransferase ABHD5 (Homo sapiens), sequence (Q8WTS1 whole entry, looked up, the tested form may be a part): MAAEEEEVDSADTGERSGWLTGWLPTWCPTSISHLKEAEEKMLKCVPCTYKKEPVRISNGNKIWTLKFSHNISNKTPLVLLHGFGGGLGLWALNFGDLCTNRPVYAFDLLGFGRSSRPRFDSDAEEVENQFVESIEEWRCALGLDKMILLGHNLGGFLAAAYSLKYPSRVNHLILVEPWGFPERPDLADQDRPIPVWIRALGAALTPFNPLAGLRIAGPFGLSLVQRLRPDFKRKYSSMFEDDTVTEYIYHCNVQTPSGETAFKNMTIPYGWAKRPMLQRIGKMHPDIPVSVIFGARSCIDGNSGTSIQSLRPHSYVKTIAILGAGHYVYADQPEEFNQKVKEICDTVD

Row | SMILES | IC50
1 | O=C(/C(=C/c1ccccc1)n1cncn1)c1ccc(Cl)cc1Cl | 2.13 µM
2 | CCCCCNC(=O)C(c1ccccc1F)n1c(=O)c(-c2ccco2)nc2ccccc21 (stereo not drawn) | 2.39 µM
3 | O=C(COc1ccccc1Cl)Nc1ccc(N2CCCC2)cc1 | > 39.9 µM (inactive)
4 | O=C(Nc1ccc(Cl)cc1)/C(=C/c1cccc(O)c1)c1nc2ccccc2s1 | 1.71 µM
5 | CCOC(=O)c1c(NC(C)=O)sc2c1CCC(C=O)=C2Sc1ccccc1 | 3.1 µM
6 | Cc1ccc(CS(=O)(=O)c2ncc(Cl)c(C(=O)Nc3nnc(C(C)C)s3)n2)cc1 | 2.88 µM
7 | COc1ccc(C(C(=O)Nc2c(C)cccc2C)n2c(=O)c(-c3ccco3)nc3ccccc32)cc1 (stereo not drawn) | 4.29 µM
8 | CCN1CCN(Cc2ccc(NC(=O)c3ccc(C)c(/C=C/c4cnc(Nc5cc(N6CCNCC6)nc(C)n5)cn4)c3)cc2C(F)(F)F)CC1 | 6.01 µM
9 | O=C(O)CC(O)(CC(=O)O)C(=O)O | 3.54 µM
10 | O=C(NC1CCCCC1)C(c1cc2ccccc2o1)n1c(=O)c(-c2ccco2)nc2ccccc21 (stereo not drawn) | 3.47 µM
11 | O=C(NCc1ccccc1)C(c1ccc(C(F)(F)F)cc1)n1c(=O)c(-c2ccco2)nc2ccccc21 (stereo not drawn) | 3.15 µM
12 | Cc1cc(C)c(NC(=O)CN2CCN3CCCC3C2)c(C)c1 (stereo not drawn) | 4.81 µM
13 | CC(C)(C)NC(=O)C(c1cccc2ccccc12)n1c(=O)c(-c2ccco2)nc2ccccc21 (stereo not drawn) | 4.38 µM
14 | CN1C(=O)/C(=C/C=C/c2ccco2)C(=O)NC1=S | inactive
15 | Cc1cccc(C)c1NC(=O)C(c1ccccc1F)n1c(=O)c(-c2ccco2)nc2ccccc21 (stereo not drawn) | 5.65 µM
16 | CN(C)CCCN(C(=O)CCc1ccccc1)c1nc2ccc(Br)cc2s1 | inactive
17 | NC(=O)C(C(=O)/C=C/c1ccc(Cl)cc1)=C1SCCS1 | inactive

Row | SMILES | IC50
18 | O=C(NCc1ccccc1)C(c1ccccc1)n1c(=O)c(-c2ccco2)nc2ccccc21 (stereo not drawn) | 4.77 µM
19 | CC1=CC(C)(C)Nc2ccc(OC(=O)CN3C(=O)CCC3=O)cc21 | 3.21 µM
20 | CC(C)c1ccc(N2C=Nc3ccc(C(C)C)cc3C2)cc1 | 7.82 µM
21 | CCCCCNC(=O)C(C1CC1)n1c(=O)c(-c2ccco2)nc2ccccc21 (stereo not drawn) | 9.99 µM
22 | Cc1ccc(C(=O)c2c(C)oc3c2C(=O)C(=O)c2ccccc2-3)cc1 | 5.87 µM
23 | CCCCCNC(=O)C(c1cccc2ccccc12)n1c(=O)c(-c2ccco2)nc2ccccc21 (stereo not drawn) | 4.25 µM
24 | CCC(C)NC(=O)Nc1ccc2c(c1)N(C)C(=O)c1ccccc1S2 (stereo not drawn) | 3.6 µM
25 | CN1CCC(=C2c3ccccc3CC(=O)c3sccc32)CC1 | 5.57 µM and 5.43 µM
26 | CC(C)c1nnc(NC(=O)c2nc(S(=O)(=O)Cc3ccc(F)cc3)ncc2Cl)s1 | 3.45 µM
27 | CC(=O)Oc1c(Cl)c(N2CCOCC2)c(OC(C)=O)c2ccccc12 | 8.04 µM
28 | CSC(=Nc1ccccc1)N=C(SCc1ccccc1)N(C)C | 1.19 µM
29 | CN(C)c1ccc(Cc2cc3c(O)ccc(O)c3cc(Cc3ccc(N(C)C)cc3)c2=O)cc1 | 4.13 µM
30 | CC(=O)C1=C(c2cccc([N+](=O)[O-])c2)N(C(C)=O)n2c(C)nnc2S1 | 4.3 µM
31 | CC(=O)Cc1cc(O)c2ccccc2c1OC(=O)c1ccc(Br)cc1 | 4.1 µM
32 | C#CCN(C[C@@H]1[C@@H](OC(=O)NCc2ccc(OC)c(OC)c2)[C@@H](OC(=O)NCc2ccc(OC)c(OC)c2)Cn2c(=O)ccc(=O)n21)S(=O)(=O)c1ccc(C)cc1 | 5.74 µM
33 | Cc1oc2c(c1C(=O)c1ccc(Cl)cc1)C(=O)C(=O)c1ccccc1-2 | 4.38 µM

Reference: PubChem BioAssay AID651733 (The Scripps Research Institute Molecular Screening Center, 2012)
